Reference: patent US7691874B2, “Neuroprotective properties of dextrorotatory morphinans” (priority 2004, dated 2010)
Marks after values point to notes of the source that are not given here.

Columns and labels:
C57 BL/6 mice [1] = test: Locomotor activity and locomotor pattern following repeated administration of morphinans or PCP; assay type: in vivo
C57 BL/6 mice [2] = test: Conditioned place preference (psychological dependence) following repeated administration of morphinans or PCP; assay type: in vivo; details: 20 or 40 mg/kg i.p. (PCP 2.5 or 5 mg/kg); vs saline
Experimental: On day 14, the guillotine doors were raised. […] Data were analyzed between 0900 and 1700 hr.

MPTP-treated mice [3] = test: Hypokinesia (reduction in locomotor activity) induced by MPTP; assay type: in vivo; details: 12 or 24 mg/kg i.p. 30 min before MPTP (20 mg/kg/day x 7), last three days
LPS-treated mice [4] = test: Striatal dopamine and metabolites in LPS-treated mice; assay type: in vivo; details: for Concentration DA in the striatum: 3 weeks after LPS
Text: (§1) Control animals received striatal injection with PBS.
Mice were sacrificed at 3 weeks after LPS treatment.

LPS-treated mice [5] = test: Nigral TH-IR in LPS-treated mice; assay type: in vivo; details: 24 mg/kg i.p.
Text: FIGS. 8A-8B. […] Magnification=40×.
as §1

MA-treated mice [6] = test: Hypokinesia induced by MA; assay type: in vivo; details: 12 and 24 mg/kg; 3 days after final MA
MA-treated mice [7] = test: Striatal dopamine and metabolites in MA-treated mice; assay type: in vivo; details: for Concentration DA in the striatum: 3 days after final MA
Text: Mice were sacrificed at 3 days after final MA injection.

MPTP-treated mice [8] = test: MPTP model, HM versus L-dopa/carbidopa: locomotor activity; assay type: in vivo; details: HM 24 mg/kg i.p., L-dopa 200 mg/kg p.o., carbidopa 20 mg/kg p.o., 2 weeks before MPTP
Experimental: FIGS. 20A-20B show effects of carbidopa, L-dopa, carbidopa+L-dopa and HM on the changes in locomotor activity (A) and locomotor pattern (B) induced by MPTP in mice.
A prescription drug for treating Parkinsonian patients is L-dopa or carbidopa plus L-dopa. Thus, the neuroprotective effects of HM was compared with L-dopa, carbidopa, or carbidopa plus L-dopa. […] Locomotor activity was examined for 60 min after final treatment of MPTP. Mice were sacrificed at 24 h after final MPTP administration. HM (24 mg/kg, i.p.), L-dopa (200 mg/kg, p.o.) with or without carbidopa (20 mg/kg, p.o.) was administered for 2 weeks before first MPTP challenge.

MA-treated mice [9] = test: MA model, HM versus L-dopa/carbidopa: locomotor activity; assay type: in vivo; details: 3 days after MA
cocaine-treated mice [10] = test: Cocaine-induced hyperlocomotion; assay type: in vivo
In short: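 Morphinans (15 and 30 mg/kg, i.p.) or dimemorfan (20 mg/kg, i.p.) given 30 minutes before cocaine (5 and 20 mg/kg, i.p.); treatments continued for 7 days. Locomotion scored as central activity (non-specific movement in box center) and marginal activity (circling).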

cocaine-treated mice [11] = test: Cocaine-induced conditioned place preference with CB1 modulation
Experimental: (§2) The control mice received an i.p. injection of saline just before entering the white or black compartment. Cocaine or MA dissolved in saline was administered immediately before the mice were placed in the white compartment. To test the effect of cocaine alone or MA alone or in combination with exemplified morphinans (DM, HM, AM, CM or DF), each morphinan was administered 2 hr before cocaine or saline injection.
(§3) On day 1, the mice were pre-exposed to the test apparatus for 5 min. The guillotine doors were raised and the mice were allowed to move freely between the two compartments. On day 2, the time each mouse spent in each compartment was recorded for 15 min. On days 3, 5, 7, 9, 11, and 13, the mice were injected with cocaine before being confined to the white compartment, the non-preferred side, for 20 min. On days 4, 6, 8, 10, and 12, the mice were injected with saline before being confined to the black compartment, the preferred side, for 20 min. On day 14, the guillotine doors were raised. The mice were initially placed in the tunnel and the time spent by the mice in the two compartments was recorded for 15 min. The scores were calculated from the differences in the time spent in the white compartment in the testing and pre-testing phases.

cocaine-treated mice [12] = test: Cocaine-induced behavioural sensitization with CB1 modulation
MA-treated mice [13] = test: MA-induced behavioural sensitization
Experimental: Morphinans (20 mg/kg, i.p.) were administered last 3 days of wash-out period.

MA-treated mice [14] = test: MA-induced conditioned place preference with CB1 modulation
Experimental: as §2, §3

[15] = tested on: NMDA receptor associated PCP sites; details: cited from earlier work
[16] = tested on: kainate or maximal electric shock; details: kainate (24) or maximal electric shock (27); cited from earlier work
MA-treated mice [17] = test: Nigral TH-IR in MA-treated mice; details: 24 mg/kg i.p.
MA-treated mice [18] = test: MA-induced loss of nigral TH-IR with CB1 agonist/antagonist and HM; details: given alone
Experimental: Compounds were administered 3 days before and after MA injection.

MPTP-treated mice [19] = test: Nigral tyrosine hydroxylase-like immunoreactivity in MPTP-treated mice; details: 24 mg/kg i.p.
Experimental: Each morphinan was administered 30 min prior to every injection of MPTP for last three days (from day 4th to day 7th). Animals were sacrificed 24 h after the last MPTP treatment.

With Oc1ccc2c(c1)[C@@]13CCCC[C@H]1[C@@H](C2)NCC3 [HM, 3-hydroxymorphinan] the “locomotor pattern (tracings)” value (C57 BL/6 mice [1]; 40 mg/kg i.p. (PCP 5 mg/kg), FIG. 3) was “did not produce significant marginal activity”, the “marginal activity (circling behaviour; absolute turn angular)” value (C57 BL/6 mice [1]; 20 or 40 mg/kg i.p./day x 7 (PCP 2.5 or 5 mg/kg), 3-min period, vs saline) was “did not significantly affect marginal activity” and the “locomotor activity (total distance moved)” value (C57 BL/6 mice [1]; 20 or 40 mg/kg i.p./day x 7 days, 30 min after final treatment, vs saline) was “comparable to that with saline”. For the same compound, the “conditioned place preference (CPP)” value (C57 BL/6 mice [2]) was “almost no CPP effects”, the “effect on MPTP-induced reduction in locomotor activity” value (MPTP-treated mice [3]) was “significantly prevented MPTP-induced reduction in locomotor activity” and the “effect on LPS-induced reductions in striatal DA, DOPAC and HVA” value (LPS-treated mice [4]; 24 mg/kg pretreatment) was “significantly protected”. For the same compound, the “Concentration DOPAC in the striatum” value (LPS-treated mice [4]; morphinan 12 (mg/kg) + LPS) was 83 ± 10 ng/100 mg wet tissue, the “Concentration HVA in the striatum” value (LPS-treated mice [4]; morphinan 12 (mg/kg) + LPS) was 86 ± 8 ng/100 mg wet tissue and the “Concentration DA in the striatum” value (LPS-treated mice [4]; morphinan 12 (mg/kg) + LPS, mean ± S.E.M., 8 animals) was 682 ± 70 ng/100 mg wet tissue. The “Concentration DOPAC in the striatum” value (LPS-treated mice [4]; morphinan 24 (mg/kg) + LPS) was 112 ± 11^d ng/100 mg wet tissue, the “Concentration HVA in the striatum” value (LPS-treated mice [4]; morphinan 24 (mg/kg) + LPS) was 102 ± 10^b ng/100 mg wet tissue and the “Concentration DA in the striatum” value (LPS-treated mice [4]; morphinan 24 (mg/kg) + LPS) was 916 ± 98^d ng/100 mg wet tissue. The “effect on LPS-induced reduction in nigral TH-positive cells” value (LPS-treated mice [5]) was “significantly attenuated the reduction in TH-positive cells”, the “effect on MA-induced reduction in locomotor activity” value (MA-treated mice [6]) was “appeared to be the most effective in preventing reduction in motor activity” and the “effect on MA-induced reductions in striatal DA, DOPAC and HVA” value (MA-treated mice [7]; 24 mg/kg pretreatment) was “significantly protected”. For the same compound, the “Concentration DOPAC in the striatum” value (MA-treated mice [7]; morphinan 12 (mg/kg) + MA) was 88 ± 10 ng/100 mg wet tissue, the “Concentration HVA in the striatum” value (MA-treated mice [7]; morphinan 12 (mg/kg) + MA) was 82 ± 8 ng/100 mg wet tissue and the “Concentration DA in the striatum” value (MA-treated mice [7]; morphinan 12 (mg/kg) + MA, mean ± S.E.M., 8 animals) was 685 ± 64 ng/100 mg wet tissue. The “Concentration DOPAC in the striatum” value (MA-treated mice [7]; morphinan 24 (mg/kg) + MA) was 103 ± 9^d^ ng/100 mg wet tissue, the “Concentration HVA in the striatum” value (MA-treated mice [7]; morphinan 24 (mg/kg) + MA) was 100 ± 11^c ng/100 mg wet tissue and the “Concentration DA in the striatum” value (MA-treated mice [7]; morphinan 24 (mg/kg) + MA) was 864 ± 82^d ng/100 mg wet tissue. The “effect on MPTP-induced decrease in locomotor activity” value (MPTP-treated mice [8]) was “significantly increased”, the “effect on MA-induced reduction in locomotor activity” value (MA-treated mice [9]) was “more efficacious than that of L-dopa or carbidopa+L-dopa” and the “effect on locomotor activity induced by low dose of cocaine” value (cocaine-treated mice [10]; cocaine 5 mg/kg i.p. x 7 days, morphinan 15 or 30 mg/kg (DF 20 mg/kg) i.p.) was “consistently attenuated locomotor activity induced by a low dose of cocaine”. The “effect on hyperactivity induced by high dose of cocaine” value (cocaine-treated mice [10]; cocaine 20 mg/kg i.p. x 7 days, morphinan 15 or 30 mg/kg i.p. 30 min before) was “not uniform”, the “CPP response of the compound itself” value (cocaine-treated mice [11]; AM 251 0.3, HM 20, ACEA 2 mg/kg, no cocaine) was “Neither saline-, AM 251 (0.3 mg/kg)-treated nor HM (20 mg/kg)-treated animals showed any CPP response” and the “effect on cocaine-induced CPP” value (cocaine-treated mice [11]; cocaine 10 mg/kg) was “significantly reduced”. The “behavioural effects of the compound itself” value (cocaine-treated mice [12]; AM 251 0.3, ACEA 2, HM 20 mg/kg, no cocaine) was “Neither saline-, AM 251 (0.3 mg/kg)-, ACEA (2 mg/kg)-treated nor HM (20 mg/kg)-treated animals showed any specific behavioural effects”, the “effect on cocaine-induced behavioural sensitization” value (cocaine-treated mice [12]; cocaine 10 mg/kg/day i.p. x 7, challenge one month later) was “significantly reduced” and the “behavioural effects of the compound itself” value (MA-treated mice [13]; AM 251 0.3, ACEA 2, HM 20 mg/kg, no MA (Ex. 3.14)) was “Neither saline-, AM 251 (0.3 mg/kg)-, ACEA (2 mg/kg)-treated nor HM (20 mg/kg)-treated animals showed any behavioural effects”. The “effect on MA-induced behavioural sensitization (CB1 modulation study)” value (MA-treated mice [13]; MA 1 mg/kg i.p./day x 7, challenge one week later (Ex. 3.14)) was “significantly reduced”, the “CPP response of the compound itself” value (MA-treated mice [14]; AM 251 0.3, HM 20, ACEA 2 mg/kg i.p., no MA) was “Neither saline-, AM 251 (0.3 mg/kg, i.p.)-treated nor HM (20 mg/kg)-treated animals showed any CPP responses” and the “effect on MA-induced CPP” value (MA-treated mice [14]; mouse, in vivo) was “significantly reduced the CPP produced by MA”. The “affinity for NMDA receptor associated PCP sites” value [15] was “very low affinities”, the anticonvulsant effect [16] was “did not show any anticonvulsant effect” and the “effect on MA-induced decrease in nigral TH-positive cells” value (MA-treated mice [17]) was “significantly attenuated the decrease in TH-positive cells”. For the same compound, the “effect on MA-induced reduction in nigral TH-IR” value (MA-treated mice [18]) was “Prevents Methamphetamine (MA)-induced Reduction in Tyrosine Hydroxylase-like Immunoreactivity” and the “effect on MPTP-induced decrease in nigral TH-positive cells” value (MPTP-treated mice [19]) was “significantly attenuated the decrease in TH-positive cells”.
